Assay results from patent US10267797B2, “Detection of oral microbial virulence factors” (The Procter & Gamble Company, priority 2015, dated 2019).
Like-named read-outs stand apart in the source and are kept apart here.

How the values were obtained:
[1] = test system: THP-1 cells stimulated by P. gingivalis LPS 1690; test: Inhibition of LPS stimulated cytokine production in THP-1 cells; type: cell-based, human; details: 0.3 mM to 9 mM citrulline; 300 ng/ml LPS; 24 hours; IL-6, TNF-α, IL-12p70, IL-10, IL-2, IFN-r, IL-1β (FIG. 26)
Description: Citrulline was purchased from Sigma-Aldrich (St. Louis, Mo.). THP1-Dual™ cells were purchased from Invivogen (San Diego, Calif.). Cells were cultured following the manufacturer's instruction, as described in EXAMPLE 11. For treatment, 0.3 mM to 9 mM of citrulline were first added to the culture medium. […] After 24 hours of treatment, media was collected and analyzed for cytokine production using 9-plex kit (Meso Scale Diagnostics Rockville, Md.).

E. coli LPS = details: 0.63 mM; E. coli LPS 15 μg/ml
TLR4 = molecular target: T1, TLR4 (Homo sapiens, UniProt O00206+Q9Y6Y9); type: cell-based; details: for reduction of P. gingivalis LPS activation on the TLR4 reporter system: P. gingivalis LPS 500 ng/ml
T1 construct: host or cells: HEK 293T (HEK-Blue hTLR4)
T1 sequence (Q9Y6Y9 17-160): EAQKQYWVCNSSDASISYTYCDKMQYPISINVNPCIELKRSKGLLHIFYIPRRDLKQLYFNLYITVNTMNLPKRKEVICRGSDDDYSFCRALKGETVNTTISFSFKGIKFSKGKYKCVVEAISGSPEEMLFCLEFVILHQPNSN
T1 sequence (O00206 24-839): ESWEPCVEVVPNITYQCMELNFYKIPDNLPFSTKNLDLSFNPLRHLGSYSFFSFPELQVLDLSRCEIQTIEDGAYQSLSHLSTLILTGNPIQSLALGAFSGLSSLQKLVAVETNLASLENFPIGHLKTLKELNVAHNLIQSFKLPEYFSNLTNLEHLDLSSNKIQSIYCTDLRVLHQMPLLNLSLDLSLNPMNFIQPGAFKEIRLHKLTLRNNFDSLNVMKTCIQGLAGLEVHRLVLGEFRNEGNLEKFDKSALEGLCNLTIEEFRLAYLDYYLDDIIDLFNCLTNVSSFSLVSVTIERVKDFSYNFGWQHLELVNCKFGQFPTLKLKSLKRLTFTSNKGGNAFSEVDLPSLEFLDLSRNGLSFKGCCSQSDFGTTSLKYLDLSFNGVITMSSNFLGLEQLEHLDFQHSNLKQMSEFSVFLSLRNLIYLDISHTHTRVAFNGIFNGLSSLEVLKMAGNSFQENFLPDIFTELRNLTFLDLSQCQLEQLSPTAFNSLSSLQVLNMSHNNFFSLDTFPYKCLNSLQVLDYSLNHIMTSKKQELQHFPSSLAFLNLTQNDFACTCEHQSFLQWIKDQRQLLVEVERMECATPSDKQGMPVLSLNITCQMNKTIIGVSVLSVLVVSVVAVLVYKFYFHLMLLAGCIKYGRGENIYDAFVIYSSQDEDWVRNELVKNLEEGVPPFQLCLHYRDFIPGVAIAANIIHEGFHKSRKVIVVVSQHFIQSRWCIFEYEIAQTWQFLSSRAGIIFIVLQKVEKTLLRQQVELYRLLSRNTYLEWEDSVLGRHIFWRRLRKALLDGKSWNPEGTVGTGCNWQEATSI
Description: The cell line is named here as TLR4-SEAP. The reporter gene encodes a secreted enzyme, called embryonic alkaline phosphatase or SEAP. The SEAP reporter is placed under the control of the interferon-β minimal promoter fused to five NFkB and AP-1-binding sites. Furthermore, the TLR4-SEAP cell line also contains a CD14 co-receptor gene, which is needed to transfer LPS to TLR4 receptors. The recombinant TLR binds its ligand, or distinct pathogen-associated molecule, initiates a chain of responses, leading to recruitment of NFkB and AP1 transcription factors to the reporter gene promoter, which induce expression of SEAP.
For treatment, wells of a 96-well plate were seeded with 10,000 cells/well in 100 μL of growth medium. […] On day 4, medium was changed to assay medium (90 μl), which is the DMEM medium without fetal calf serum. […] 10 μl of the bacteria, LPS and culture medium of bacterial growth were added to the TLR4-SEAP cells. Samples were taken 24 hours later, following addition of LPS, bacteria, and culture medium. Expression of the reporter gene (SEAP) was quantified with a commercially available kit (SEAP Reporter Gene Assay of Cayman Chemical Co., Ann Arbor, Mich.).
EC50 was calculated using GraphPad Prism software (GraphPad Software, La Jolla, Calif.).
Tests were conducted to understand whether stannous fluoride could reduce LPS's ability to trigger proinflammatory responses in host cells.

TLR2 = TLR2 (Homo sapiens, UniProt O60603); test: TLR2-SEAP reporter gene assay in HEK 293T cells; details: P. gingivalis LPS; stannous 1000 uM (FIG. 4)
Sequence of TLR2 (O60603 21-784): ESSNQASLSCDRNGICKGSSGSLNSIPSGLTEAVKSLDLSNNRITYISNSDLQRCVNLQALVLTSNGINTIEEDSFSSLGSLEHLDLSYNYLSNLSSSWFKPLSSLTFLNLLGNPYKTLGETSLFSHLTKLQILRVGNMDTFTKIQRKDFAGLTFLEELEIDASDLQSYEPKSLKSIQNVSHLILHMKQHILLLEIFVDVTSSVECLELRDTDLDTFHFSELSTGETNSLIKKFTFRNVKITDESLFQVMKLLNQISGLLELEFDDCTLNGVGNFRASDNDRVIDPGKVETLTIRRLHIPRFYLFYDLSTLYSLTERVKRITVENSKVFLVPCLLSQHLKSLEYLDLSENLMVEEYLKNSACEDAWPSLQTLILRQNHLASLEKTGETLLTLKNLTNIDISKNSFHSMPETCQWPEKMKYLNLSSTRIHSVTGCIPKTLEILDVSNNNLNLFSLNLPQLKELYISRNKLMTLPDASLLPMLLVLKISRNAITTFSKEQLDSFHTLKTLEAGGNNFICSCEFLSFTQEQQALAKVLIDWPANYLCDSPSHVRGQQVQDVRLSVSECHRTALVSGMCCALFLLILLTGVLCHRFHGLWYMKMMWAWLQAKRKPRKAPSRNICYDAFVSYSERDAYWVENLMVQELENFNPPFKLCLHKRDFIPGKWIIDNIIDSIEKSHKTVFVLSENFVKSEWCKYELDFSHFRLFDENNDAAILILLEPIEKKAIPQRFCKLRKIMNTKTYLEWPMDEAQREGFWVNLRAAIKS
Description: The cell line is named here as TLR2-SEAP. The reporter gene encodes a secreted enzyme, called embryonic alkaline phosphatase or SEAP. The SEAP reporter is placed under the control of the interferon-β minimal promoter fused to five NFkB and AP-1-binding sites. Furthermore, a CD14 co-receptor gene was transfected into the reporter gene cells expressing TLR2, as CD14 has been identified as a co-receptor for TLR2 ligands to enhance the TLR response. The CD14 co-receptor is needed to transfer LTA to TLR2 receptors. The recombinant TLR2 binds its ligand, or distinct pathogen-associated molecule, initiates a chain of responses, leading to recruitment of NFkB and AP1 transcription factors to the reporter gene promoter, which induce expression of SEAP.
For treatment with LTA, wells of a 96-well plate were seeded with 10,000 cells/well in 100 μL of growth medium. […] On day 4, medium (100 μL) was changed to DMEM medium without fetal calf serum. […] Samples were taken 24 hours later, following addition of samples. Expression of the reporter gene (SEAP) was quantified with a commercially available kit (SEAP Reporter Gene Assay of Cayman Chemical Co., Ann Arbor, Mich.).

SMILES | effect on P. gingivalis LPS 1690 stimulated proinflammatory cytokine production [1] | Displacement % (E. coli LPS) [%] | level of E. coli induction of TLR-4 (TLR4; 100 ng/ml E. coli LPS, stannous 500 uM or higher (FIG. 3)) | reduction of P. gingivalis LPS activation on the TLR4 reporter system (TLR4; 3.2 mM (FIG. 5)) | reduction of P. gingivalis LPS activation on the TLR4 reporter system (TLR4; […] (FIG. 5)) | level of P. gingivalis induction of TLR-2 (TLR2)
NC(=O)NCCC[C@H](N)C(=O)O [Citrulline] | inhibited |  |  |  |  | 
[F][Sn][F] [Tin (II) fluoride] |  | 12.69 | decreased | about 50% | about 50% | decreased
